Assays:
Assay in all cases: relative viability (nuclei count vs DMSO), 5 days (fraction); higher = more cells survive
IU1-47 + Vorinostat = compound: CC1=CC(=C(N1C2=CC=C(C=C2)Cl)C)C(=O)CN3CCCCC3 [IU1-47] + O=C(CCCCCCC(=O)Nc1ccccc1)NO [Vorinostat] (partner 1 µM)
How it was run: (§1)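 Lung cancer cell lines, seeded in 1536-well plates, were treated the following day by pin tool with a single drug or with five library-drug doses (not always all listed) in √10 steps on top of a fixed anchor-drug dose. Cells were fixed and nuclei stained in one step after 5 days, and nuclei were counted. Relative viability is the nuclei count for treated wells divided by that for vehicle wells, reported as medians of duplicate plates.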

FG-4592 + Luminespib = compound: Cc1nc(C(=O)NCC(=O)O)c(O)c2ccc(Oc3ccccc3)cc12 [FG-4592] + CCNC(=O)c1noc(-c2cc(C(C)C)c(O)cc2O)c1-c1ccc(CN2CCOCC2)cc1 [Luminespib] (partner 0.01 µM)
How it was run: as §1

FG-4592 + Tozasertib = compound: Cc1nc(C(=O)NCC(=O)O)c(O)c2ccc(Oc3ccccc3)cc12 [FG-4592] + Cc1cc(Nc2cc(N3CCN(C)CC3)nc(Sc3ccc(NC(=O)C4CC4)cc3)n2)n[nH]1 [Tozasertib] (partner 0.1 µM)
How it was run: as §1

FG-4592 + Olaparib = compound: Cc1nc(C(=O)NCC(=O)O)c(O)c2ccc(Oc3ccccc3)cc12 [FG-4592] + O=C(c1cc(Cc2n[nH]c(=O)c3ccccc23)ccc1F)N1CCN(C(=O)C2CC2)CC1 [Olaparib] (partner 8 µM)
How it was run: as §1

| Cell Line | relative viability (IU1-47 + Vorinostat; first compound 0.08 µM) | relative viability (IU1-47 + Vorinostat; first compound 0.253 µM) | relative viability (IU1-47 + Vorinostat; first compound 0.8 µM) | relative viability (IU1-47 + Vorinostat; first compound 2.53 µM) | relative viability (IU1-47 + Vorinostat; first compound 8 µM) | relative viability (FG-4592 + Luminespib; first compound 0.08 µM) | relative viability (FG-4592 + Luminespib; first compound 0.253 µM) | relative viability (FG-4592 + Luminespib; first compound 0.8 µM) | relative viability (FG-4592 + Luminespib; first compound 2.53 µM) | relative viability (FG-4592 + Luminespib; first compound 8 µM) | relative viability (FG-4592 + Tozasertib; first compound 0.08 µM) | relative viability (FG-4592 + Tozasertib; first compound 0.253 µM) | relative viability (FG-4592 + Tozasertib; first compound 0.8 µM) | relative viability (FG-4592 + Tozasertib; first compound 2.53 µM) | relative viability (FG-4592 + Tozasertib; first compound 8 µM) | relative viability (FG-4592 + Olaparib; first compound 0.08 µM) | relative viability (FG-4592 + Olaparib; first compound 0.253 µM) | relative viability (FG-4592 + Olaparib; first compound 2.53 µM) | relative viability (FG-4592 + Olaparib; first compound 8 µM) | relative viability (FG-4592 + Olaparib; first compound 0.8 µM) |
| --- | --- | --- | --- | --- | --- | --- | --- | --- | --- | --- | --- | --- | --- | --- | --- | --- | --- | --- | --- | --- |
| NCI-H522 | 0.95 | 0.903 | 0.884 | 0.695 | 0.851 | 0.895 | 1.22 | 1.18 | 1.01 | 1.08 | 0.493 | 0.625 | 0.545 | 0.539 | 0.437 | 0.766 | 0.644 | 0.588 | 0.678 | – |
| HCC-15 | 0.885 | 0.894 | 0.946 | 0.766 | 0.731 | 0.403 | 0.371 | 0.26 | 0.302 | 0.253 | 0.333 | 0.42 | 0.395 | 0.391 | 0.444 | 0.684 | 0.709 | 0.615 | 0.719 | 0.741 |
| A-427 | 0.894 | 0.847 | 0.841 | 0.883 | 0.836 | 0.912 | 0.926 | 0.89 | 1.18 | 1 | 0.21 | 0.223 | 0.201 | 0.206 | 0.224 | 0.687 | 0.731 | 0.689 | 0.705 | 0.718 |
| NCI-H2228 | 0.577 | 0.6 | 0.725 | 0.692 | 0.563 | 0.151 | 0.181 | 0.174 | 0.113 | 0.16 | 0.276 | 0.262 | 0.226 | 0.288 | 0.225 | 0.386 | 0.697 | 0.517 | 0.693 | 0.794 |
| NCI-H1734 | 0.902 | 0.859 | 0.778 | 0.542 | 0.816 | 0.183 | 0.185 | 0.177 | 0.192 | 0.178 | 0.284 | 0.267 | 0.256 | 0.252 | 0.217 | 0.597 | 0.61 | 0.68 | 0.605 | 0.664 |
| PC-14 | 0.757 | 0.756 | 0.734 | 0.49 | 0.573 | 0.136 | 0.177 | 0.143 | 0.197 | 0.16 | 0.674 | 0.55 | 0.651 | 0.596 | 0.682 | 0.268 | 0.289 | 0.248 | 0.302 | 0.258 |
| NCI-H1915 | 0.541 | 0.572 | 0.533 | 0.371 | 0.509 | 0.721 | 0.828 | 0.911 | 0.781 | 0.697 | 0.405 | 0.439 | 0.497 | 0.444 | 0.369 | 0.25 | 0.248 | 0.253 | 0.282 | 0.276 |
| NCI-H1666 | 0.961 | 0.984 | 1.08 | 1.1 | 1.03 | 0.966 | 0.965 | 0.96 | 1 | 0.95 | 0.651 | 0.592 | 0.594 | 0.657 | 0.56 | 0.764 | 0.744 | 0.796 | 0.779 | 0.809 |
| HCC-366 | 0.298 | 0.283 | 0.378 | 0.453 | 0.342 | – | – | – | – | – | 0.226 | 0.0945 | 0.123 | 0.0834 | 0.0885 | 0.331 | 0.353 | 0.435 | 0.296 | 0.352 |
| SK-MES-1 | 1.09 | 1.15 | 1.26 | 1.24 | 1.03 | 0.837 | 0.721 | 0.683 | 0.794 | 0.785 | 0.862 | 0.872 | 0.961 | 0.862 | 0.832 | 0.655 | 0.624 | 0.748 | 0.66 | 0.786 |
| SW 1573 | 0.736 | 0.732 | 0.779 | 0.454 | 0.792 | 0.224 | 0.547 | 0.186 | 0.415 | 0.223 | 0.205 | 0.173 | 0.207 | 0.171 | 0.198 | 0.426 | 0.632 | 0.612 | 0.483 | 0.597 |
| NCI-H661 | 0.805 | 0.861 | 0.798 | 0.836 | 0.761 | 0.94 | 0.888 | 0.961 | 0.863 | 0.951 | 0.365 | 0.371 | 0.347 | 0.359 | 0.343 | 0.708 | 0.727 | 0.757 | 0.816 | 0.822 |
| PC-3 [JPC-3] | 0.857 | 1.04 | 0.772 | 0.691 | 0.972 | 0.735 | 0.639 | 0.817 | 0.798 | 0.575 | 0.872 | 0.854 | 0.935 | 0.901 | 0.854 | 1.1 | 0.975 | 1.1 | 1.12 | – |
| NCI-H1623 | – | – | – | – | – | 0.466 | 0.547 | 0.409 | 0.492 | 0.415 | 0.434 | 0.422 | 0.404 | 0.45 | 0.436 | – | – | – | – | – |
| Calu-6 | – | – | – | – | – | – | – | – | – | – | – | – | – | – | – | 0.543 | 0.575 | 0.56 | 0.648 | 0.653 |
| LC-2-ad | 0.736 | 0.736 | 0.71 | – | 0.715 | 0.961 | 0.885 | – | 0.932 | 0.926 | 0.545 | 0.433 | – | 0.421 | 0.465 | 0.683 | 0.694 | 0.755 | 0.782 | 0.725 |
| CAL-12T | 0.826 | 0.759 | 0.711 | 0.747 | 0.841 | 0.212 | 0.458 | 0.129 | 0.375 | 0.689 | 0.335 | 0.267 | 0.312 | 0.293 | 0.29 | 0.63 | 0.67 | 0.764 | 0.687 | 0.727 |
| RERF-LC-KJ | 0.743 | 0.749 | 0.749 | 0.604 | 0.605 | 1.23 | 1.24 | 1.45 | 1.17 | 0.991 | 0.485 | 0.448 | 0.578 | 0.543 | 0.463 | 0.853 | 0.913 | 0.996 | 0.894 | 0.861 |

From the supplement of paper PMC10307832
